Test results: patent US5563163A, “2-saccharinylmethyl heterocyclic carboxylates useful as proteolytic enzyme inhibitors and compositions and method of use thereof” (Sterling Winthrop, Inc., priority 1995, dated 1996)
Structures can show the parent of a compound that is named as a salt.

Molecular target: T1, human leukocyte elastase (HLE) (Homo sapiens, UniProt P08246)
T1 sequence (P08246 30-267): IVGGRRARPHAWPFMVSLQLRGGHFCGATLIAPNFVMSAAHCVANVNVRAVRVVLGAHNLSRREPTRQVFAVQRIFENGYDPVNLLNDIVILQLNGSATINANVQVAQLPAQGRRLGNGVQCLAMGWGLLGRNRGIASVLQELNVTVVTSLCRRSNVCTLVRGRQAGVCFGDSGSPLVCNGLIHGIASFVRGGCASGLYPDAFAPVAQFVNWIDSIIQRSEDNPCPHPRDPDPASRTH
Assay: Inhibition of human leukocyte elastase (HLE): rate of inactivation kon and inhibition constant Ki* (= koff/kon)
Format: biochemical
Settings: for kinact/KI: "Kon × 10^-3": value is Kon multiplied by 10^-3; for Ki: Ki* calculated as koff/kon, not a truly reversible Ki
Experimental: Measurement of the inhibition constant, Ki, of a HLE-inhibitor complex has been described for "truly reversible inhibition constants" usually concerning competitive inhibitors. [Cha, Biochem. Pharmacol., 24, 2177-2185 (1975)]. […] Thus, instead of measuring a Ki, a Ki * is calculated which is defined as the ratio of the koff /kon, the rate of reactivation of the enzyme to the rate of inactivation of the enzyme. The values of koff and kon are measured and Ki * is then calculated. The rate of inactivation, kon, of enzymatic activity was determined for the compounds tested by measuring the enzyme activity of an aliquot of the respective enzyme as a function of time after addition of the test compound. […] The rate of inactivation is then equal to [formula] where [I] is the concentration of the inhibiting compound. The reactivation constant, koff, is similarly determined, and the inhibition constant, Ki *, is then calculated as Ki *=koff /kon The values obtained for kon and Ki * for specific substituted saccharin derivatives are shown in TABLE 3, the compounds being identified by the Example numbers above where their preparations are described.

Row | SMILES | kinact/KI [M⁻¹ s⁻¹] | Ki [nM]
1 | O=C(OCN1C(=O)c2ccccc2S1(=O)=O)c1ccncc1 [Example 1, 2-saccharinylmethyl pyridine-4-carboxylate] | 1200 | 40
2 | O=C(OCN1C(=O)c2ccccc2S1(=O)=O)c1c(Cl)cncc1Cl [Example 2, 2-saccharinylmethyl 3,5-dichloropyridine-4-carboxylate] | 11000 | 10
3 | CC(C)c1cccc2c1C(=O)N(COC(=O)c1c(Cl)cnc(OCCN3CCOCC3)c1Cl)S2(=O)=O [Example 3, 4-(isopropyl]-2-saccharinylmethyl 3.5-dichloro-2-[2-(4-morpholinyl)ethoxy]pyridine-4-carboxylate hydrochloride] | 1.5e+06 | 0.015
4 | CC(C)c1cccc2c1C(=O)N(COC(=O)c1c(Cl)cncc1Cl)S2(=O)=O [Example 4, 4-isopropyl-2-saccharinylmethyl 3,5-dichloro-pyridine-4-carboxylate hydrochloride] | 2.3e+06 | –
5 | COc1cc(C(C)C)c2c(c1)S(=O)(=O)N(COC(=O)c1c(Cl)cnc(OCCN(C)C)c1Cl)C2=O [Example 5, 4-isopropyl-6-methoxy-2-saccharinylmethyl 3,5-dichloro-2-[2-(dimethylamino)ethoxy]pyridine-4-carboxylate] | 455000 | 0.022
6 | COc1cc(C(C)C)c2c(c1)S(=O)(=O)N(COC(=O)c1ccsc1)C2=O [Example 6, 4-isopropyl-6-methoxy-2-saccharinylmethyl thiophene-3-carboxylate] | 47600 | 0.21
7 | COc1cc(C(C)C)c2c(c1)S(=O)(=O)N(COC(=O)c1sccc1C)C2=O [Example 7, 4-isopropyl-6-methoxy-2-saccharinylmethyl 3-methylthiophene-2-carboxylate] | 625000 | 0.016
8 | COc1cc(C(C)C)c2c(c1)S(=O)(=O)N(COC(=O)c1cccs1)C2=O [Example 8, 4-isopropyl-6-methoxy-2-saccharinylmethyl thiophene-2-carboxylate] | 100000 | 0.1
9 | COc1cc(C(C)C)c2c(c1)S(=O)(=O)N(COC(=O)c1sccc1Cl)C2=O [Example 9, 4-isopropyl-6-methoxy-2-saccharinylmethyl 3-chlorothiophene-2-carboxylate] | 131000 | 0.076
10 | COc1cc(C(C)C)c2c(c1)S(=O)(=O)N(COC(=O)c1cc(C)no1)C2=O [Example 10, 4-isopropyl-6-methoxy-2-saccharinylmethyl 3-methylisoxazole-5-carboxylate] | 63000 | 0.16
11 | COc1cc(C(C)C)c2c(c1)S(=O)(=O)N(COC(=O)C1CCC(=O)N1)C2=O (centres unmarked) [Example 11, 4-isopropyl-6-methoxy-2-saccharinylmethyl-2-pyrrolidine-5-carboxylate] | 50000 | 0.2
12 | COc1cc(C(C)C)c2c(c1)S(=O)(=O)N(COC(=O)c1c(C)noc1C)C2=O [Example 12, 4-isopropyl-6-methoxy-2-saccharinylmethyl 3,5-dimethylisoxazole-4-carboxylate] | 28000 | 0.36
13 | COc1cc(C(C)C)c2c(c1)S(=O)(=O)N(COC(=O)c1c(C)nn(-c3ccccc3)c1C)C2=O [Example 13, 4-isopropyl.-6-methoxy-2-saccharinylmethyl 3,5-dimethyl-1-phenylpyrazole-4-carboxylate] | 9000 | 1.1
14 | COc1cc(C(C)C)c2c(c1)S(=O)(=O)N(COC(=O)c1c(C)ccnc1C)C2=O [Example 14, 4-isopropyl-6-methoxy-2-saccharinylmethyl 2,4-dimethylpyridine-3 carboxylate] | 500000 | 0.02
15 | COc1cc(C(C)C)c2c(c1)S(=O)(=O)N(COC(=O)c1c(C)c3cc(Cl)ccc3n1C)C2=O [Example 15, 4-isopropyl-6-methoxy-2-saccharinylmethyl 1,3-dimethyl-5-chloro-indole-2-carboxylate] | 6000 | 1.5
